Values after ≈ are worked out from the molar mass of the structure shown. Active and inactive are the calls of the source. The rule behind the calls is not given here.
Experiments:
[1] = test system: Candida albicans; experiment: Antifungal activity against Candida albicans MY 1055 after 24 hrs by NCCLS broth microdilution method; type: functional; conditions: for MIC: MY 1055, 24 h
[2] = test system: Nakaseomyces glabratus; experiment: Antifungal activity against Candida glabrata MY 1381 after 24 hrs by NCCLS broth microdilution method; type: functional
[3] = test system: Candida albicans; experiment: Antifungal activity against Candida albicans SC 53124 after 24 hrs by NCCLS broth microdilution method; type: functional
[4] = test system: Cryptococcus neoformans; experiment: Antifungal activity against Cryptococcus neoformans MY 2061 after 40 hrs by NCCLS broth microdilution method; type: functional
[5] = test system: Candida parapsilosis; experiment: Antifungal activity against Candida parapsilosis ATCC 22019 after 24 hrs by NCCLS broth microdilution method; type: functional
[6] = test system: Candida tropicalis; experiment: Antifungal activity against Candida tropicalis MY 1012 after 40 hrs by NCCLS broth microdilution method; type: functional
[7] = test system: Nakaseomyces glabratus; experiment: Antifungal activity against Candida glabrata CLY 574 after 24 hrs by NCCLS broth microdilution method; type: functional
[8] = test system: Meyerozyma guilliermondii; experiment: Antifungal activity against Candida guilliermondii CLY 308 after 24 hrs by NCCLS broth microdilution method; type: functional
[9] = test system: Pichia kudriavzevii; experiment: Antifungal activity against Candida krusei CLY 549 after 24 hrs by NCCLS broth microdilution method; type: functional
[10] = test system: Cryptococcus neoformans; experiment: Antifungal activity against Cryptococcus neoformans H 99 after 40 hrs by NCCLS broth microdilution method; type: functional
[11] = test system: Meyerozyma guilliermondii; experiment: Antifungal activity against Candida guilliermondii CLY 346 after 24 hrs by NCCLS broth microdilution method; type: functional
[12] = test system: Candida albicans; experiment: Antifungal activity against fluconazole-resistant Candida albicans MY 2301 after 24 hrs by NCCLS broth microdilution method; type: functional
[13] = test system: Clavispora lusitaniae; experiment: Antifungal activity against Candida lusitaniae MY 1396 after 24 hrs by NCCLS broth microdilution method; type: functional
[14] = test system: Cytochrome b (Saccharomyces cerevisiae (strain ATCC 204508 / S288c) (Baker's yeast)), P00163 [G37S]; experiment: Inhibition of Saccharomyces cerevisiae isolate 2 cytochrome bc1 complex harboring cytochrome b G37S mutant
Sequence of Cytochrome b (Saccharomyces cerevisiae (strain ATCC 204508 / S288c) (Baker's yeast)), P00163 [G37S] (P00163 whole entry G37S): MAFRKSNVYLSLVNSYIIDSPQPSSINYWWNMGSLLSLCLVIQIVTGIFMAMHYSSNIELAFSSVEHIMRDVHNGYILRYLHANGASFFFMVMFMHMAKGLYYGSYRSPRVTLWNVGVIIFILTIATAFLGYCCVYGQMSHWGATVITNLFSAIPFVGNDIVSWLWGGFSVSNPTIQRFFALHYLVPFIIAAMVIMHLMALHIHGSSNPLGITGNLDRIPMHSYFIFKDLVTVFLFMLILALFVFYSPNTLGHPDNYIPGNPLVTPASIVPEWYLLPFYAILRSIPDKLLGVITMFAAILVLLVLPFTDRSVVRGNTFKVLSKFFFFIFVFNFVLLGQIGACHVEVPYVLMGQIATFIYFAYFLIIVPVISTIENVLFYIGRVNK

[15] = test system: Cytochrome b (Saccharomyces cerevisiae (strain ATCC 204508 / S288c) (Baker's yeast)), P00163 [G37D]; experiment: Inhibition of Saccharomyces cerevisiae isolate 2 cytochrome bc1 complex harboring cytochrome b G37D mutant
Sequence of Cytochrome b (Saccharomyces cerevisiae (strain ATCC 204508 / S288c) (Baker's yeast)), P00163 [G37D] (P00163 whole entry G37D): as the sequence (P00163 whole entry G37S) above, with S37D counted along it

[16] = test system: Cytochrome b (Saccharomyces cerevisiae (strain ATCC 204508 / S288c) (Baker's yeast)), P00163 [S20L]; experiment: Inhibition of Saccharomyces cerevisiae isolate 1 cytochrome bc1 harboring cytochrome b S20L mutant
Sequence of Cytochrome b (Saccharomyces cerevisiae (strain ATCC 204508 / S288c) (Baker's yeast)), P00163 [S20L] (P00163 whole entry S20L): as the sequence (P00163 whole entry G37S) above, with S20L, S37G counted along it

[17] = test system: Cytochrome b (Candida albicans (strain SC5314 / ATCC MYA-2876) (Yeast)), P0C8L0 [G37S]; experiment: Inhibition of Candida albicans isolate 6 cytochrome bc1 complex harboring cytochrome b G37S mutant
Sequence of Cytochrome b (Candida albicans (strain SC5314 / ATCC MYA-2876) (Yeast)), P0C8L0 [G37S] (P0C8L0 whole entry G37S): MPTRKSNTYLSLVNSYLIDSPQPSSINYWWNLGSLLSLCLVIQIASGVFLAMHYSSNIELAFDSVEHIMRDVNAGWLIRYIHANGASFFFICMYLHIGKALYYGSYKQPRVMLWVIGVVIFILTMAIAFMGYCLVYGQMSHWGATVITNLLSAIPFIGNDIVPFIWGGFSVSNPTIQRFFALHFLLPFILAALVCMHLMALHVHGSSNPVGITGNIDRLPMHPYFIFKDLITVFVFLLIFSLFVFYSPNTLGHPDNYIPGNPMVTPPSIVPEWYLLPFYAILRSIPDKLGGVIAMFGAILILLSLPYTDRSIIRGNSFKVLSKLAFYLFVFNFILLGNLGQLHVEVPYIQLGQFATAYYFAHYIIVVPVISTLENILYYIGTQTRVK

[18] = test system: Cytochrome b (Saccharomyces cerevisiae (strain ATCC 204508 / S288c) (Baker's yeast)), P00163 [Q22E]; experiment: Inhibition of Saccharomyces cerevisiae isolate 3 cytochrome bc1 complex harboring cytochrome b Q22E mutant
Sequence of Cytochrome b (Saccharomyces cerevisiae (strain ATCC 204508 / S288c) (Baker's yeast)), P00163 [Q22E] (P00163 whole entry Q22E): as the sequence (P00163 whole entry G37S) above, with Q22E, S37G counted along it

[19] = test system: Cytochrome b (Saccharomyces cerevisiae (strain ATCC 204508 / S288c) (Baker's yeast)), P00163 [Q22T]; experiment: Inhibition of Saccharomyces cerevisiae isolate 2 cytochrome bc1 complex harboring cytochrome b Q22T mutant
Sequence of Cytochrome b (Saccharomyces cerevisiae (strain ATCC 204508 / S288c) (Baker's yeast)), P00163 [Q22T] (P00163 whole entry Q22T): as the sequence (P00163 whole entry G37S) above, with Q22T, S37G counted along it

[20] = test system: Cytochrome b (Saccharomyces cerevisiae (strain ATCC 204508 / S288c) (Baker's yeast)), P00163 [S20T]; experiment: Inhibition of Saccharomyces cerevisiae isolate 1 cytochrome bc1 harboring cytochrome b S20T mutant
Sequence of Cytochrome b (Saccharomyces cerevisiae (strain ATCC 204508 / S288c) (Baker's yeast)), P00163 [S20T] (P00163 whole entry S20T): as the sequence (P00163 whole entry G37S) above, with S20T, S37G counted along it

[21] = test system: Cytochrome b (Candida albicans (strain SC5314 / ATCC MYA-2876) (Yeast)), P0C8L0 [Q22E]; experiment: Inhibition of Candida albicans isolate 2 cytochrome bc1 complex harboring cytochrome b Q22E mutant
Sequence of Cytochrome b (Candida albicans (strain SC5314 / ATCC MYA-2876) (Yeast)), P0C8L0 [Q22E] (P0C8L0 whole entry Q22E): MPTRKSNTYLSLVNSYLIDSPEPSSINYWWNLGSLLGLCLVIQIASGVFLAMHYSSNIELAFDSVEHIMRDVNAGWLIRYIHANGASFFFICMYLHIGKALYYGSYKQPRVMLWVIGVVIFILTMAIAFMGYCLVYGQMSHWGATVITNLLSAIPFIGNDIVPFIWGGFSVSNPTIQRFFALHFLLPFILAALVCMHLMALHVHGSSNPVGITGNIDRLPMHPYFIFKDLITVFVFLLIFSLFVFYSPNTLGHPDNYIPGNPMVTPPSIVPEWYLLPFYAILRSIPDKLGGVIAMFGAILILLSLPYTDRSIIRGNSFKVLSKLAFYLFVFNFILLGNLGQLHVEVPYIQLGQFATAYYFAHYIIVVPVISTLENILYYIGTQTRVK

[22] = test system: Cytochrome b (Candida albicans (strain SC5314 / ATCC MYA-2876) (Yeast)), P0C8L0 [G37C]; experiment: Inhibition of Candida albicans isolate 3 cytochrome bc1 complex harboring cytochrome b G37C mutant
Sequence of Cytochrome b (Candida albicans (strain SC5314 / ATCC MYA-2876) (Yeast)), P0C8L0 [G37C] (P0C8L0 whole entry G37C): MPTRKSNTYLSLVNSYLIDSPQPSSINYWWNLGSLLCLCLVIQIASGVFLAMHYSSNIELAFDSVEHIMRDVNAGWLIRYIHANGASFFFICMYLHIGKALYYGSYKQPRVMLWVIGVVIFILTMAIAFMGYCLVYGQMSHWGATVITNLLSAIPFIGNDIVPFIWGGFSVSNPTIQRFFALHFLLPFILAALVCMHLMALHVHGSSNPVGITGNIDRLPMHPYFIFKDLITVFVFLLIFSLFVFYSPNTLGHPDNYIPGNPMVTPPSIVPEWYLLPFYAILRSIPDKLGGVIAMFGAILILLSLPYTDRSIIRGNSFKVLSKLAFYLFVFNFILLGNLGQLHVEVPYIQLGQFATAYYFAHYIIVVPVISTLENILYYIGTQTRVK

[23] = test system: Cytochrome b (Saccharomyces cerevisiae (strain ATCC 204508 / S288c) (Baker's yeast)), P00163 [L198F]; experiment: Inhibition of Saccharomyces cerevisiae isolate 1 cytochrome bc1 complex harboring cytochrome b L198F mutant
Sequence of Cytochrome b (Saccharomyces cerevisiae (strain ATCC 204508 / S288c) (Baker's yeast)), P00163 [L198F] (P00163 whole entry L198F): as the sequence (P00163 whole entry G37S) above, with S37G, L198F counted along it

[24] = test system: Cytochrome b (Candida albicans (strain SC5314 / ATCC MYA-2876) (Yeast)), P0C8L0 [S20I]; experiment: Inhibition of Candida albicans isolate 1 cytochrome bc1 complex harboring cytochrome b S20I mutant
Sequence of Cytochrome b (Candida albicans (strain SC5314 / ATCC MYA-2876) (Yeast)), P0C8L0 [S20I] (P0C8L0 whole entry S20I): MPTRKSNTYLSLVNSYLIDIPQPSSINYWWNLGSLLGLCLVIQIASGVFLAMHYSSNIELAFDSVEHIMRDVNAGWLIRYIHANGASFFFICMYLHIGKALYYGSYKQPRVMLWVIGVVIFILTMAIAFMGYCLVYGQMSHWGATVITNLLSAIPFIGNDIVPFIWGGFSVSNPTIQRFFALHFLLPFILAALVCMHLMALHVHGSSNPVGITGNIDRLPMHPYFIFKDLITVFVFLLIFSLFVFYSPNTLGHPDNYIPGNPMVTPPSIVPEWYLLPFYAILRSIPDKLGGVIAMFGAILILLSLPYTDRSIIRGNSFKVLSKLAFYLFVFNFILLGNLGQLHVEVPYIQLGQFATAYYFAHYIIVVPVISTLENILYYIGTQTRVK

[25] = test system: Cytochrome b (Candida albicans (strain SC5314 / ATCC MYA-2876) (Yeast)), P0C8L0 [G37D]; experiment: Inhibition of Candida albicans isolate 4 cytochrome bc1 complex harboring cytochrome b G37D mutant
Sequence of Cytochrome b (Candida albicans (strain SC5314 / ATCC MYA-2876) (Yeast)), P0C8L0 [G37D] (P0C8L0 whole entry G37D): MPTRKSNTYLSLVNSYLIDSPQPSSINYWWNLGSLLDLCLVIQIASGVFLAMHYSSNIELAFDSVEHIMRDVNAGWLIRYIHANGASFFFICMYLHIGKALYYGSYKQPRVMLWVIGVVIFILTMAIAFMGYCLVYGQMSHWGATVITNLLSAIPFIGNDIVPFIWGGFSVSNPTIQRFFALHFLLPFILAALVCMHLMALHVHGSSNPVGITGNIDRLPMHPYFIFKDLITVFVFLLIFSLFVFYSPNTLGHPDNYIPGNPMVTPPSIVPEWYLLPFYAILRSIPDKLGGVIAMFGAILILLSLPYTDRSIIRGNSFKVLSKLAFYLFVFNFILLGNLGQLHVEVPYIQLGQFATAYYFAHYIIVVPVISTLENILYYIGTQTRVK

[26] = Inhibition of Candida albicans MY 1055 NADH:cytochrome c oxidoreductase
[27] = Selectivity ratio of MIC for Candida albicans MY 1055 to IC50 for Candida albicans MY 1055 NADH:cytochrome c oxidoreductase; type: functional

Row | SMILES | MIC [1] | Activity [2] | Activity [3] | Activity [4] | Activity [5] | Activity [1] | Activity [6] | Activity [7] | Activity [8] | Activity [9] | Activity [10] | Activity [11] | Activity [12] | Activity [13] | further results
1 | C/C=C/[C@@H]1[C@H]2C[C@@H](C)CC[C@@H]2C(C)=C[C@H]1/C(=N\O)c1c(O)c(-c2ccc(O)cc2)c[nH]c1=O | > 10 µg/mL | – | – | – | – | – | – | – | – | – | – | – | – | – | –
2 | C/C=C/[C@@H]1[C@H]2C[C@@H](C)CC[C@@H]2C(C)=C[C@H]1/C1=N/NCCOCC12C(=O)NC=C(c1ccc(O)cc1)C2=O (some centres not stated) | > 10 µg/mL | – | – | – | – | – | – | – | – | – | – | – | – | – | –
3 | CC[C@H](C)C[C@H](C)CCCCCCCCC(=O)N[C@H]1C[C@@H](O)[C@@H](NCCN)NC(=O)[C@@H]2[C@@H](O)CCN2C(=O)[C@H]([C@H](O)CCN)NC(=O)[C@H]([C@H](O)[C@@H](O)c2ccc(O)cc2)NC(=O)[C@@H]2C[C@@H](O)CN2C(=O)[C@H]([C@@H](C)O)NC1=O | – | Active | Active | Active | Active | Active | Active | Active | Active | Active | Active | Active | Active | Active | –
4 | CO/C(=C/C(N)=O)[C@H](C)[C@H](/C=C/c1csc(-c2csc([C@@H](C)/C=C/C=C/C(C)C)n2)n1)OC | – | – | – | – | – | – | – | – | – | – | – | – | – | – | inhibition [14]: Active; inhibition [15]: Active; inhibition [16]: Active; inhibition [17]: Active; inhibition [18]: Active; inhibition [19]: Active; inhibition [20]: Active; inhibition [21]: Active; inhibition [22]: Active; inhibition [23]: Active; inhibition [24]: Active; inhibition [25]: Active
5 | C[C@@H]1[C@H](O)[C@@H](C)/C=C/C=C/C=C/C=C/C=C/C=C/C=C/[C@H](O[C@@H]2O[C@H](C)[C@@H](O)[C@H](N)[C@@H]2O)C[C@@H]2O[C@](O)(C[C@@H](O)C[C@@H](O)[C@H](O)CC[C@@H](O)C[C@@H](O)CC(=O)O[C@H]1C)C[C@H](O)[C@H]2C(=O)O | – | Active | Active | Active | Active | Active | Active | Active | Active | Active | Active | Active | Active | Active | –
6 | OC(Cn1cncn1)(Cn1cncn1)c1ccc(F)cc1F | – | Active | Active | Active | Active | Active | Active | Active | Active | Active | Active | Active | Active | Active | –
7 | C/C=C/[C@H]1C(c2noc3c(-c4ccc(O)cc4)c[nH]c(=O)c23)C=C(C)[C@H]2CC[C@H](C)C[C@@H]21 (single isomer, unassigned) | > 10 µg/mL | – | – | – | – | – | – | – | – | – | – | – | – | – | –
8 | C/C=C/[C@H]1C(c2n[nH]c3c(-c4ccc(O)cc4)c[nH]c(=O)c23)C=C(C)[C@H]2CC[C@H](C)C[C@@H]21 (single isomer, unassigned) | 0.25 µg/mL (≈ 0.582 µM) | – | – | – | – | – | – | – | – | – | – | – | – | – | IC50 [26]: 0.003 µg/mL (≈ 0.00698 µM); Ratio [27]: 10

Reference: ChEMBL document CHEMBL2177002, “Antifungal spectrum, in vivo efficacy, and structure-activity relationship of ilicicolin h” (ACS Med Chem Lett, 2012)
